Experimental data from patent publication US4446148A, “Benzodioxanyl imidazoline compounds, compositions and use” (priority 1982, dated 1984).
“Also recorded” adds a separate entry of the source. Counter-ions that a name gives are not always drawn. Like-named read-outs stand apart in the source and are kept apart here.

Key:
[1] = target: T1, postsynaptic α1-adrenoreceptor (Rattus norvegicus, UniProt P43140); assay: Postsynaptic α1-adrenoreceptor antagonism versus noradrenaline contractions of the rat anococcygeus muscle (isolated tissue)
T1 construct: the rat anococcygeus muscle is used to establish postsynaptic α1 -adrenoreceptor activity; from tissue; host or cells: rat anococcygeus muscle
T1 sequence (P43140 1-466): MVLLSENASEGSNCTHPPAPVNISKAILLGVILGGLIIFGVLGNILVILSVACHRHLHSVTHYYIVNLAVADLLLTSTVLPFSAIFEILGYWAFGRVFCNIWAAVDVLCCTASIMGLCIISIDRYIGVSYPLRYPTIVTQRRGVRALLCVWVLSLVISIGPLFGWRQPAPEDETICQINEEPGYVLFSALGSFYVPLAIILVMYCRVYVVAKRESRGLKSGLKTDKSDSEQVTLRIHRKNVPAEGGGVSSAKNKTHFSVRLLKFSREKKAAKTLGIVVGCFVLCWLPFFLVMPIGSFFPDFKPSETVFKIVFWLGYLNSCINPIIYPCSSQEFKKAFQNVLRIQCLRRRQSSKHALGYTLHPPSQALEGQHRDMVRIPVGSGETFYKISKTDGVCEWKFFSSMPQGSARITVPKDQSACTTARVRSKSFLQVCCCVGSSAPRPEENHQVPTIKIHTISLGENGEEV
Description: (§1) This in vitro model is particularly useful as an initial screen for studying presynaptic activity in isolation since the physiological nature of the vas deferens tissue is such that the postsynaptic receptors located therein are particularly inaccessible to exogenous agents. In consequence an alternative tissue, the rat anococcygeus muscle is used to establish postsynaptic α1 -adrenoreceptor activity. Antagonism of noradrenaline contractions is used to determine pA2 values at postsynaptic α1 -adrenoreceptors. The ratio of presynaptic α2 -adrenoreceptor antagonism (versus clonidine on the rat vas deferens) to postsynaptic α1 -adrenoreceptor antagonism (versus noradrenaline contractions on the rat anococcygeus muscle) is used to assess adrenoreceptor selectivity.
(§2) The results are the mean of a minimum of 5 experiments.

α2-binding sites [2] = target: T2, α2-binding sites (Rattus norvegicus, UniProt P22909); assay: Radioligand competition binding at α2-binding sites labelled by [^3 H]-RX781094 in rat cerebral cortex; conditions: for Ki: α2 Ki vs [^3 H]-RX 781094, rat cerebral cortex, 1 nM radioligand, 15 min, 25° C.; for activity of the enantiomers (in words): from Table 4 / testing results
T2 construct: A crude synaptosomal P2 fraction was prepared; from tissue; host or cells: cerebral cortex including hippocampus, male Sprague-Dawley rats, crude synaptosomal P2 fraction
T2 sequence (P22909 1-465): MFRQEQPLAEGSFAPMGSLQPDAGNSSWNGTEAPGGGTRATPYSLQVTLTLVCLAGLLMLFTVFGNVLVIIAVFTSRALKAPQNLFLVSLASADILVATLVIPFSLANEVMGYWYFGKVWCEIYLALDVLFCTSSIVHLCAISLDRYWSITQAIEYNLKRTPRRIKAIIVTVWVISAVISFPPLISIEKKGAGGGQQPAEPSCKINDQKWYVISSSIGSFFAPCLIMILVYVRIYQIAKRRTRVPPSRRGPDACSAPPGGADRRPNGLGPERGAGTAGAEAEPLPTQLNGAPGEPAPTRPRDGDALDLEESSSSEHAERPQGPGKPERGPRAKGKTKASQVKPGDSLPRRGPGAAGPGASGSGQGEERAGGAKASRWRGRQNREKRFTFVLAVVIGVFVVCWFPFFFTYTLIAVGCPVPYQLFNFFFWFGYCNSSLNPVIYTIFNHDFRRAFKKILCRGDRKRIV
Description: The pharmacological activity of the racemic compound (RS) of Example 1 (in formula I R^1 =methyl) has been compared with the activities of the R and S enantiomers.
(§3) Male Sprague-Dawley rats, 250-300 g, were killed by decapitation, the brains quickly removed and the cerebral cortex dissected free from striatal tissue but including the hippocampus. Tissue was homogenized in ice-cold buffered sucrose (20 vols w/v 0.3 M sucrose in Tris/HCl buffer, 0.05 M, pH 7.4) using a Potter-type glass-teflon homogenizer. A crude synaptosomal P2 fraction was prepared and the washed P2 -pellet was resuspended in a physiological salt solution to give a final protein concentration of about 1 mg/ml. The physiological salt solution had the following composition (nM): 118 NaCl, 4.8 KCl, 1.3 CaCl2, 1.2 KH2 PO, 1.2 MgSO4, 25 NaHCO3 and was equilibrated with 95% O2 and 5% CO2.
Samples were incubated for 15 min at 25° C. and then rapidly filtered under vacuum through Whatman GFB filters and washed. Filters were transferred to scintillation vials and NE 260 miscellar scintillation fluid (3.5 ml) was added prior to scintillation counting (at 40% efficiency). Competition binding curves including up to eight concentrations of test antagonist were constructed and IC50 values determined. Hill plots made from each set of data were linear with Hill coefficients (nh) […] to 1.0 and inhibitor constants (Ki values) were derived from IC50 values.

[3] = target: T3, presynaptic α2-adrenoreceptor (Rattus norvegicus, UniProt P22909); assay: Presynaptic α2-adrenoreceptor antagonism versus clonidine on the stimulated rat vas deferens (isolated tissue); conditions: for Pre/postsynaptic ratio: presynaptic α2 (vs clonidine, vas deferens) to postsynaptic α1 (vs noradrenaline, anococcygeus) antagonism
T3 construct: on the rat vas deferens stimulated at a frequency of 0.1 Hz; from tissue; host or cells: rat vas deferens
T3 sequence (P22909 1-465): T2 sequence (P22909 1-465)
Description: as §1, §2

[4] = tested on: presynaptic α2-adrenoreceptors; assay: Presynaptic α2-adrenoreceptor antagonism in the pithed rat: reversal of clonidine block on vas deferens, intravenous; type: in vivo; conditions: for i.v. dose of antagonist causing 50% reversal of clonidine block on vas deferens: cumulative i.v. dosing, clonidine 100 μg/kg i.v., mean of minimum 4 rats
Description: This test model extends the evaluation of presynaptic α2 -adrenoreceptor antagonism versus clonidine on the rat vas deferens to the in vivo situation. Blood pressure and stimulation induced contractions of the vas deferens were monitored in pithed rats using the method of Brown, J., Doxey, J. C., Handley, S. and Virdee, N., Recent Advances in the Pharmacology of Adrenoceptors, Elsevier North Holland, 1978. Clonidine (100 μg/kg. i.v.) causes a prolonged pressor response and a prolonged inhibition of vas deferens contractions. The test drugs were injected intravenously in a cumulative dosing schedule and their abilities to reverse the inhibition of hypogastric nerve stimulation reflected their presynaptic antagonism.
The results are the mean of a minimum of 4 rats.

α2-binding sites [5] = target: T2, α2-binding sites; assay: Saturation binding of [^3 H]-RX 781094 in rat cerebral cortex, Scatchard analysis; conditions: 0.1-35 nM radioligand, n=4
Description: as §3, with “mg/ml.” for “mg/ml. The physiological salt solution had the following composition (nM): 118 NaCl, 4.8 KCl, 1.3 CaCl2, 1.2 KH2 PO, 1.2 MgSO4, 25 NaHCO3 and was equilibrated with 95% O2 and 5% CO2.”

Compound: COC1(C2=NCCN2)COc2ccccc2O1 (racemic) [Example 1, 2-[2-(2-Methoxy-1,4-benzodioxanyl)]-2-imidazoline]
- Kb ([1]; rat anococcygeus muscle, vs noradrenaline, mean of minimum 5 experiments, read-out: Postsynaptic antagonism pA2 vs Noradrenaline (anococcygeus) (converted)): 63.1 nM
- Ki (α2-binding sites [2]): 0.8 ± 0.05 nM
- presynaptic α2 antagonist activity relative to the unsubstituted compound (A) ([3]; Table 2, relative to compound A): ~10 times
- presynaptic α2 antagonist activity relative to the 2-methyl compound (B) ([3]; Table 2, relative to compound B): 10 times
- presynaptic α2-adrenoreceptor antagonist potency and selectivity (in words) ([3]; compounds of Table 2): most potent presynaptic α2 -adrenoreceptor antagonist; also recorded: extremely selective for presynaptic sites
- Pre/postsynaptic ratio [3]: 776
- Kb ([3]; rat vas deferens, 0.1 Hz stimulation, vs clonidine, mean of minimum 5 experiments, read-out: Presynaptic antagonism pA2 vs Clonidine (vas deferens) (converted)): 0.0794 nM
- presynaptic α2 antagonist potency in the pithed rat (in words) ([4]; compounds of Table 3): clearly the most potent presynaptic α2 -adrenoreceptor antagonist
- i.v. dose of antagonist causing 50% reversal of clonidine block on vas deferens ([4]; pithed rat): 0.002 mg/kg

Compound: COC1(C2=NCCN2)COc2ccccc2O1 (single isomer, unassigned) [S, 2-[2-(2-methoxy-1,4-benzodioxanyl)]-2-imidazoline]
- potency of the S isomer relative to the racemate (in words) (α2-binding sites [2]; from Table 4): twice as potent as the racemate
- activity of the enantiomers (in words) (α2-binding sites [2]; listed as (+) enantiomer): all the activity resided in the (+) enantiomer
- activity of the enantiomers (in words) (α2-binding sites [2]; listed as S isomer): the active form
- Ki (α2-binding sites [2]): 0.36 ± 0.07 nM

Compound: COC1(C2=NCCN2)COc2ccccc2O1 (single isomer, unassigned; (-)) [R, (-)-2-[2-(2-methoxy-1,4-benzodioxanyl)]-2-imidazoline]
- activity of the enantiomers (in words) (α2-binding sites [2]; listed as R isomer): almost inactive
- Ki (α2-binding sites [2]): 256 ± 59 nM

Compound: c1ccc2c(c1)OCC(C1=NCCN1)O2 (stereo not shown) [A, 2-[2-(1,4-benzodioxanyl)]-2-imidazoline, reference compound]
- Kb [1]: 631 nM

Compound: CC1(C2=NCCN2)COc2ccccc2O1 (stereo not shown) [B, 2-[2-(2-methyl-1,4-benzodioxanyl)]-2-imidazoline, reference compound]
- Pre/postsynaptic ratio [3]: 871

Compound: CN1CCN2c3ccccc3Cc3ccccc3C2C1 (stereo not shown) [Mianserin HCl]
- i.v. dose of antagonist causing 50% reversal of clonidine block on vas deferens ([4]; pithed rat): > 4.4 mg/kg

Compound: CN1CCN2c3ccccc3Cc3ccccc3C2C1 (stereo not shown) [Mianserin]
- maximum reversal of the inhibitory effects of clonidine on hypogastric nerve stimulation ([4]; pithed rat, cumulative intravenous dose of 4.4 mg/kg): 36%

Compound: Cc1ccc(N(CC2=NCCN2)c2cccc(O)c2)cc1 [Phentolamine mesylate]
- i.v. dose of antagonist causing 50% reversal of clonidine block on vas deferens ([4]; pithed rat): 0.12 mg/kg

Compound: COC(=O)[C@@H]1[C@H]2C[C@H]3c4[nH]c5ccccc5c4CCN3C[C@@H]2CC[C@@H]1O [Yohimbine HCl]
- i.v. dose of antagonist causing 50% reversal of clonidine block on vas deferens ([4]; pithed rat): 0.86 mg/kg

Compound: c1ccc2c(c1)OCC(C1=NCCN1)O2 (stereo not shown) [[^3 H]-RX 781094, 2-[2-(1,4-benzodioxanyl)]-2-imidazoline]
- Bmax (α2-binding sites [5]): 147±36 f moles/mg protein
